Reference: PubChem BioAssay AID2060490 (Molecular Pharmacology Branch, DTP, NCI, 2025)

Test system: 885512-296-R-J2-PDC complex spheroid viability
Test: Anticancer human tumor 885512-296-R-J2-PDC patient-derived breast carcinoma cell line growth inhibition [GQUAD]
Conditions: for IC50: curve of first compound; for viability, T/C: stronger effect = lower value
How it was run: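 Tumor cells were grown as complex spheroids with HUVEC endothelial cells and mesenchymal stem cells as stroma. G-quadruplex stabilizers were combined with targeted agents over half-log dilutions from near the clinical Cmax, or from 10 microM.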
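Also: spheroids exposed to the compounds for one week.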
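For viability, T/C in this document: percent of tumor spheroid viability relative to DMSO vehicle control wells.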

With `CC(C)(O)C1CCC(Nc2ccc3ncc(-c4cccc(C(F)(F)F)c4)n3n2)CC1` (configuration not stated) + Cc1cnc(CNC(=O)c2c(=O)c3ccc(N4CCCN(C)CC4)nc3n3c2sc2ccccc23)cn1 the IC50 (second compound 0.0316 µM) was 1670 nM, the IC50 (second compound 0.1 µM) was 1350 nM and the IC50 (second compound 0.316 µM) was < 31.6 nM. The IC50 (second compound 1 µM) was < 31.6 nM, the IC50 (second compound 3.16 µM) was < 31.6 nM and the IC50 (second compound 10 µM) was < 31.6 nM. For the same molecule, the viability, T/C (second compound 0.0316 µM, first compound 0.0316 µM) was 91.5%, the viability, T/C (second compound 0.0316 µM, first compound 0.1 µM) was 70.3% and the viability, T/C (second compound 0.0316 µM, first compound 0.316 µM) was 85.9%. The viability, T/C (second compound 0.0316 µM, first compound 1 µM) was 69.8%, the viability, T/C (second compound 0.0316 µM, first compound 3.16 µM) was 25.8% and the viability, T/C (second compound 0.0316 µM, first compound 10 µM) was 25.2%. The viability, T/C (second compound 0.1 µM, first compound 0.0316 µM) was 63.4%, the viability, T/C (second compound 0.1 µM, first compound 0.1 µM) was 55.3% and the viability, T/C (second compound 0.1 µM, first compound 0.316 µM) was 52.6%. It also gave a viability, T/C (second compound 0.1 µM, first compound 1 µM) of 57.6%, a viability, T/C (second compound 0.1 µM, first compound 3.16 µM) of 29.6% and a viability, T/C (second compound 0.1 µM, first compound 10 µM) of 24.7%. It also gave a viability, T/C (second compound 0.316 µM, first compound 0.0316 µM) of 24.4%, a viability, T/C (second compound 0.316 µM, first compound 0.1 µM) of 23.7% and a viability, T/C (second compound 0.316 µM, first compound 0.316 µM) of 25.7%. For the same molecule, the viability, T/C (second compound 0.316 µM, first compound 1 µM) was 27.1%, the viability, T/C (second compound 0.316 µM, first compound 3.16 µM) was 28.8% and the viability, T/C (second compound 0.316 µM, first compound 10 µM) was 20.6%. It also gave a viability, T/C (second compound 1 µM, first compound 0.0316 µM) of 22.9%, a viability, T/C (second compound 1 µM, first compound 0.1 µM) of 23.8% and a viability, T/C (second compound 1 µM, first compound 0.316 µM) of 29.4%. For the same molecule, the viability, T/C (second compound 1 µM, first compound 1 µM) was 29.9%, the viability, T/C (second compound 1 µM, first compound 3.16 µM) was 25.6% and the viability, T/C (second compound 1 µM, first compound 10 µM) was 11.9%. For the same molecule, the viability, T/C (second compound 3.16 µM, first compound 0.0316 µM) was 27.7%, the viability, T/C (second compound 3.16 µM, first compound 0.1 µM) was 28% and the viability, T/C (second compound 3.16 µM, first compound 0.316 µM) was 24.5%. The viability, T/C (second compound 3.16 µM, first compound 1 µM) was 23.1%, the viability, T/C (second compound 3.16 µM, first compound 3.16 µM) was 0.1% and the viability, T/C (second compound 3.16 µM, first compound 10 µM) was 0.36%. For the same molecule, the viability, T/C (second compound 10 µM, first compound 0.0316 µM) was 0.06%, the viability, T/C (second compound 10 µM, first compound 0.1 µM) was 0.14% and the viability, T/C (second compound 10 µM, first compound 0.316 µM) was 0.19%. It also gave a viability, T/C (second compound 10 µM, first compound 1 µM) of 0.18%, a viability, T/C (second compound 10 µM, first compound 3.16 µM) of 0.19% and a viability, T/C (second compound 10 µM, first compound 10 µM) of 0.2%.
